Reference: PubChem BioAssay (NCI)
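Here, GI50 denotes the concentration required for 50% inhibition of growth. Definition used: TGI = concentration required for complete inhibition of growth.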

Key:
Test in all cases: DTP human tumour cell line panel, 384-well format
786-0 renal = tested on: 786-0 renal
A498 renal = tested on: A498 renal
A549 NSCLC = tested on: A549 NSCLC
ACHN renal = tested on: ACHN renal
BT-549 breast = tested on: BT-549 breast
CAKI-1 renal = tested on: CAKI-1 renal
CCRF-CEM leukemia = tested on: CCRF-CEM leukemia
COLO 205 colon = tested on: COLO 205 colon
DU-145 prostate = tested on: DU-145 prostate
EKVX NSCLC = tested on: EKVX NSCLC
HCC-2998 colon = tested on: HCC-2998 colon
HCT-116 colon = tested on: HCT-116 colon
HCT-15 colon = tested on: HCT-15 colon
HL-60(TB) leukemia = tested on: HL-60(TB) leukemia
HOP-62 NSCLC = tested on: HOP-62 NSCLC
HOP-92 NSCLC = tested on: HOP-92 NSCLC
HS 578T breast = tested on: HS 578T breast
HT29 colon = tested on: HT29 colon
IGROV1 ovarian = tested on: IGROV1 ovarian
K-562 leukemia = tested on: K-562 leukemia
KM12 colon = tested on: KM12 colon
LOX IMVI melanoma = tested on: LOX IMVI melanoma
M14 melanoma = tested on: M14 melanoma
MALME-3M melanoma = tested on: MALME-3M melanoma
MCF7 breast = tested on: MCF7 breast
MDA-MB-231 breast = tested on: MDA-MB-231 breast
MDA-MB-435 melanoma = tested on: MDA-MB-435 melanoma
MDA-MB-468 breast = tested on: MDA-MB-468 breast
MOLT-4 leukemia = tested on: MOLT-4 leukemia
NCI-H226 lung = tested on: NCI-H226 lung
NCI-H23 lung = tested on: NCI-H23 lung
NCI-H322M lung = tested on: NCI-H322M lung
NCI-H460 NSCLC = tested on: NCI-H460 NSCLC
NCI-H522 lung = tested on: NCI-H522 lung
NCI/ADR-RES ovarian = tested on: NCI/ADR-RES ovarian
OVCAR-3 ovarian = tested on: OVCAR-3 ovarian
OVCAR-4 ovarian = tested on: OVCAR-4 ovarian
OVCAR-8 ovarian = tested on: OVCAR-8 ovarian
PC-3 prostate = tested on: PC-3 prostate
RPMI-8226 leukemia = tested on: RPMI-8226 leukemia
RXF 393 renal = tested on: RXF 393 renal
SF-268 CNS = tested on: SF-268 CNS
SF-295 CNS = tested on: SF-295 CNS
SF-539 CNS = tested on: SF-539 CNS
SK-MEL-28 melanoma = tested on: SK-MEL-28 melanoma
SK-MEL-5 melanoma = tested on: SK-MEL-5 melanoma
SK-OV-3 ovarian = tested on: SK-OV-3 ovarian
SN12C renal = tested on: SN12C renal
SNB-19 CNS = tested on: SNB-19 CNS
SNB-75 CNS = tested on: SNB-75 CNS
SR leukemia = tested on: SR leukemia
SW-620 colon = tested on: SW-620 colon
T-47D breast = tested on: T-47D breast
TK-10 renal = tested on: TK-10 renal
U251 glioblastoma = tested on: U251 glioblastoma
UACC-257 melanoma = tested on: UACC-257 melanoma
UACC-62 melanoma = tested on: UACC-62 melanoma
UO-31 renal = tested on: UO-31 renal

## CN(C)CCCOc1ccc(-c2ccc3ncc4c(c3c2)n(C2CCOCC2)c(=O)n4C)cn1
786-0 renal
  GI50: 5.99 µM
  TGI: > 100 µM
A498 renal
  GI50: 2.54 µM
  TGI: > 100 µM
A549 NSCLC
  GI50: 3.91 µM
  TGI: > 100 µM
ACHN renal
  GI50: 5.21 µM
  TGI: > 100 µM
BT-549 breast
  GI50: 3.56 µM
  TGI: 30 µM
CAKI-1 renal
  GI50: 1.45 µM
  TGI: 6.38 µM
CCRF-CEM leukemia
  GI50: 1.95 µM
  TGI: 10 µM
COLO 205 colon
  GI50: 2.17 µM
  TGI: 13.5 µM
DU-145 prostate
  GI50: 4.92 µM
  TGI: > 100 µM
EKVX NSCLC
  GI50: 2.39 µM
  TGI: > 100 µM
HCC-2998 colon
  GI50: 3.12 µM
  TGI: > 100 µM
HCT-116 colon
  GI50: 6.44 µM
  TGI: 55.7 µM
HCT-15 colon
  GI50: 5.01 µM
  TGI: > 100 µM
HL-60(TB) leukemia
  GI50: 2.95 µM
  TGI: 11 µM
HOP-62 NSCLC
  GI50: 3.81 µM
  TGI: > 100 µM
HOP-92 NSCLC
  GI50: 3.45 µM
  TGI: 20.2 µM
HS 578T breast
  GI50: 1.47 µM
  TGI: 4.14 µM
HT29 colon
  GI50: 4.36 µM
  TGI: 27.8 µM
IGROV1 ovarian
  GI50: 1.17 µM
  TGI: 6.42 µM
K-562 leukemia
  GI50: 7.55 µM
  TGI: 30.6 µM
KM12 colon
  GI50: 2.67 µM
  TGI: 26 µM
LOX IMVI melanoma
  GI50: 2.45 µM
  TGI: 14.5 µM
M14 melanoma
  GI50: 3.32 µM
  TGI: > 100 µM
MALME-3M melanoma
  GI50: 1.24 µM
  TGI: 6.1 µM
MCF7 breast
  GI50: 1.91 µM
  TGI: > 100 µM
MDA-MB-231 breast
  GI50: 2.08 µM
  TGI: > 100 µM
MDA-MB-435 melanoma
  GI50: 6.28 µM
  TGI: > 100 µM
MDA-MB-468 breast
  GI50: 2.47 µM
  TGI: 19.9 µM
MOLT-4 leukemia
  GI50: 1.39 µM
  TGI: 4.71 µM
NCI-H226 lung
  GI50: 3.73 µM
  TGI: > 100 µM
NCI-H23 lung
  GI50: 8.22 µM
  TGI: > 100 µM
NCI-H322M lung
  GI50: 3.21 µM
  TGI: 36.7 µM
NCI-H460 NSCLC
  GI50: 1.5 µM
  TGI: 96.2 µM
NCI-H522 lung
  GI50: 3.48 µM
  TGI: > 100 µM
NCI/ADR-RES ovarian
  GI50: > 100 µM
  TGI: > 100 µM
OVCAR-3 ovarian
  GI50: 1.69 µM
  TGI: 4.86 µM
OVCAR-4 ovarian
  GI50: 7.94 µM
  TGI: > 100 µM
OVCAR-8 ovarian
  GI50: 5.22 µM
  TGI: > 100 µM
PC-3 prostate
  GI50: 1.73 µM
  TGI: 12 µM
RPMI-8226 leukemia
  GI50: 0.738 µM
  TGI: 2.39 µM
RXF 393 renal
  GI50: 5.05 µM
  TGI: > 100 µM
SF-268 CNS
  GI50: 4.23 µM
  TGI: > 100 µM
SF-295 CNS
  GI50: 2.95 µM
  TGI: > 100 µM
SF-539 CNS
  GI50: 3.85 µM
  TGI: > 100 µM
SK-MEL-28 melanoma
  GI50: 5.73 µM
  TGI: > 100 µM
SK-MEL-5 melanoma
  GI50: 2.23 µM
  TGI: > 100 µM
SK-OV-3 ovarian
  GI50: 2.45 µM
  TGI: 71.9 µM
SN12C renal
  GI50: 2.32 µM
  TGI: 32.8 µM
SNB-19 CNS
  GI50: 22.9 µM
  TGI: > 100 µM
SNB-75 CNS
  GI50: 2.76 µM
  TGI: > 100 µM
SR leukemia
  GI50: 0.172 µM
  TGI: 0.445 µM
SW-620 colon
  GI50: 4.91 µM
  TGI: > 100 µM
T-47D breast
  GI50: 1.22 µM
  TGI: 11.7 µM
TK-10 renal
  GI50: 3 µM
  TGI: 49.5 µM
U251 glioblastoma
  GI50: > 100 µM
  TGI: > 100 µM
UACC-257 melanoma
  GI50: > 100 µM
  TGI: > 100 µM
UACC-62 melanoma
  GI50: 4.33 µM
  TGI: 23.3 µM
UO-31 renal
  GI50: 4.78 µM
  TGI: > 100 µM
